For eight molecules, IC50 and MIC results are on record in ChEMBL document CHEMBL1137071, “Phenyl thiazolyl urea and carbamate derivatives as new inhibitors of bacterial cell-wall biosynthesis” (Bioorg Med Chem Lett, 2004).

The structures appear in SMILES notation. Values after ≈ are worked out from the molar mass of the structure shown.

What all share (type): functional
The nature of experiment [1]: Inhibitory activity against MurB from Staphylococcus aureus.
Experiment [2] concerns Escherichia coli. Description: Antimicrobial activity against Escherichia coli GC 4559.
The subject of experiment [3] is Staphylococcus aureus. Briefly: Antimicrobial activity against Staphylococcus aureus GC 2216 (ATCC).
The nature of experiment [4]: Inhibitory activity against MurA from Escherichia coli.
Experiment [5] concerns Enterococcus faecalis. Briefly: Antimicrobial activity against Enterococcus faecalis GC 2242 (VRE).
For experiment [6], the system named is Staphylococcus aureus. Briefly: Antimicrobial activity against Staphylococcus aureus GC 4543 (MSSA).
For experiment [7], the system named is Streptococcus pneumoniae. Briefly: Antimicrobial activity against Streptococcus pneumoniae GC1894 (PRSP) in the presence of 4% bovine serum albumin.
A short description of experiment [8]: Antimicrobial activity against MSCNS (methicillin-susceptible coagulase-negative staphylococci) GC 646. Conditions: Staphylococcus.
In experiment [9] the test system is Streptococcus pneumoniae. Briefly: Antimicrobial activity against Streptococcus pneumoniae GC1894 (PRSP).
Experiment [10] has as its system Staphylococcus aureus. Description: Antimicrobial activity against Staphylococcus aureus GC 1131 (MRSA).
Experiment [11] can be described thus: Inhibitory activity against MurB from Escherichia coli.
In experiment [12] the test system is Enterococcus faecalis. Description: Antimicrobial activity against Enterococcus faecalis GC 4555 (ATCC).
The test system of experiment [13] is Escherichia coli. Description: Antimicrobial activity against Escherichia coli GC 4560.

Broadly, the IC50 is the midpoint of a concentration-inhibition curve. Read a high IC50 as a need for much substance. As usually defined, the MIC is the smallest concentration in the dilution series that meets the test's criterion for growth inhibition. In the case of `N#Cc1cnc(NC(=O)NCc2ccc(Cl)c(Cl)c2)s1`, the IC50 was 24 µg/mL (≈ 73.4 µM) in [1], over 25 µg/mL in [4] and over 25 µg/mL in experiment [11]. For the same molecule, the MIC is over 128 µg/mL in the experiment on Escherichia coli [2]; over 128 µg/mL against Staphylococcus aureus [3]; 64 µg/mL (≈ 196 µM) against Enterococcus faecalis [5]; over 128 µg/mL in the experiment with Staphylococcus aureus [6]; 128 µg/mL with Streptococcus pneumoniae [7]; over 128 µg/mL in experiment [8]. In addition, the MIC in the experiment on Streptococcus pneumoniae [9] was 64 µg/mL (≈ 196 µM); in the experiment with Staphylococcus aureus [10] it was over 128 µg/mL; with Enterococcus faecalis [12] it was over 128 µg/mL; with Escherichia coli [13], over 128 µg/mL.

Consider `N#Cc1sc(NC(=O)Nc2ccc(Cl)c(Cl)c2)nc1Cl`, for which the IC50 in experiment [1], in [4] and in [11] was over 25 µg/mL throughout. Moreover, the minimum inhibitory concentration (MIC) against Escherichia coli [2] is over 128 µg/mL; in the experiment with Staphylococcus aureus [3] it was 0.25 µg/mL (≈ 0.719 µM); in the experiment with Enterococcus faecalis [5], 0.25 µg/mL (≈ 0.719 µM); with Staphylococcus aureus [6], 0.25 µg/mL (≈ 0.719 µM); in the experiment with Streptococcus pneumoniae [7], over 128 µg/mL; in experiment [8], 0.5 µg/mL (≈ 1.44 µM). The MIC in the experiment on Streptococcus pneumoniae [9] is under 0.12 µg/mL; in the experiment on Staphylococcus aureus [10], 0.5 µg/mL (≈ 1.44 µM); against Enterococcus faecalis [12] it was 0.5 µg/mL (≈ 1.44 µM); with Escherichia coli [13] it was 0.5 µg/mL (≈ 1.44 µM).

In the case of `CN[C@H](CC(C)C)C(=O)N[C@H]1C(=O)N[C@@H](CC(N)=O)C(=O)N[C@H]2C(=O)N[C@H]3C(=O)N[C@H](C(=O)N[C@H](C(=O)O)c4cc(O)cc(O)c4-c4cc3ccc4O)[C@H](O)c3ccc(c(Cl)c3)Oc3cc2cc(c3O[C@@H]2O[C@H](CO)[C@@H](O)[C@H](O)[C@H]2O[C@H]2C[C@](C)(N)[C@H](O)[C@H](C)O2)Oc2ccc(cc2Cl)[C@H]1O` [VANCOMYCIN], the MIC with Escherichia coli [2] was over 128 µg/mL; in the experiment with Enterococcus faecalis [5], over 128 µg/mL; against Streptococcus pneumoniae [9], under 0.12 µg/mL; in the experiment with Enterococcus faecalis [12], 2 µg/mL (≈ 1.38 µM); in the experiment on Escherichia coli [13] it was 0.25 µg/mL (≈ 0.173 µM).

On to `COc1nc(NC(=O)Nc2ccc(Cl)c(Cl)c2)sc1C#N`, for which the MIC in the experiment with Escherichia coli [2] is over 128 µg/mL; with Staphylococcus aureus [3], over 128 µg/mL; in the experiment on Enterococcus faecalis [5] it was 4 µg/mL (≈ 11.7 µM); in the experiment with Staphylococcus aureus [6] it was over 128 µg/mL; in the experiment on Streptococcus pneumoniae [7], over 128 µg/mL; in experiment [8] it was over 128 µg/mL. Besides, the MIC was over 128 µg/mL in the experiment with Streptococcus pneumoniae [9], over 128 µg/mL against Staphylococcus aureus [10], 32 µg/mL (≈ 93.2 µM) in the experiment with Enterococcus faecalis [12] and over 128 µg/mL in the experiment on Escherichia coli [13]. Besides, the figures for the IC50 in [4] and in [11] were 21.6 µg/mL (≈ 62.9 µM) and 9.8 µg/mL (≈ 28.6 µM), respectively.

With `N#Cc1cnc(NC(=O)Nc2ccc(F)c(F)c2)s1`, the minimal inhibitory concentration (MIC) was 8 µg/mL (≈ 28.5 µM) in the experiment on Escherichia coli [2]; 4 µg/mL (≈ 14.3 µM) against Staphylococcus aureus [3]; 4 µg/mL (≈ 14.3 µM) against Enterococcus faecalis [5]; 2 µg/mL (≈ 7.14 µM) with Staphylococcus aureus [6]; 64 µg/mL in the experiment on Streptococcus pneumoniae [7]; 4 µg/mL (≈ 14.3 µM) in [8]. Besides, the MIC in the experiment on Streptococcus pneumoniae [9] was determined as 0.5 µg/mL (≈ 1.78 µM); in the experiment with Staphylococcus aureus [10], 4 µg/mL (≈ 14.3 µM); in the experiment on Enterococcus faecalis [12] it was 4 µg/mL (≈ 14.3 µM); against Escherichia coli [13], 4 µg/mL (≈ 14.3 µM). Besides, the IC50 is over 25 µg/mL in [4] and 19 µg/mL (≈ 67.8 µM) in [11].

With `O=C(Nc1ccc(Cl)c(Cl)c1)Nc1nccs1`, the half-inhibitory concentration (IC50) in [1] was over 25 µg/mL; in experiment [4], 20 µg/mL (≈ 69.4 µM); in [11] it was over 25 µg/mL. For the same molecule, the MIC in the experiment with Escherichia coli [2] is over 128 µg/mL; in the experiment with Staphylococcus aureus [3], 2 µg/mL (≈ 6.94 µM); in the experiment with Enterococcus faecalis [5] it was 4 µg/mL (≈ 13.9 µM); against Staphylococcus aureus [6], 2 µg/mL (≈ 6.94 µM); with Streptococcus pneumoniae [7], over 128 µg/mL; in [8], 2 µg/mL (≈ 6.94 µM). Besides, the MIC in the experiment on Streptococcus pneumoniae [9] turned out to be 0.5 µg/mL (≈ 1.74 µM); against Staphylococcus aureus [10] it was 2 µg/mL (≈ 6.94 µM); in the experiment with Enterococcus faecalis [12], 4 µg/mL (≈ 13.9 µM); in the experiment on Escherichia coli [13] it was 0.5 µg/mL (≈ 1.74 µM).

With `N#Cc1csc(NC(=O)Nc2ccc(Cl)c(Cl)c2)n1`, the IC50 in [1] is 14 µg/mL (≈ 44.7 µM); in experiment [4], over 25 µg/mL; in experiment [11], over 25 µg/mL. The MIC is over 128 µg/mL in the experiment with Escherichia coli [2]; 4 µg/mL (≈ 12.8 µM) with Staphylococcus aureus [3]; 2 µg/mL (≈ 6.39 µM) with Enterococcus faecalis [5]; 4 µg/mL (≈ 12.8 µM) with Staphylococcus aureus [6]; 128 µg/mL in the experiment on Streptococcus pneumoniae [7]; 4 µg/mL (≈ 12.8 µM) in experiment [8]. For the same molecule, the MIC against Streptococcus pneumoniae [9] is under 0.12 µg/mL; against Staphylococcus aureus [10], 8 µg/mL (≈ 25.5 µM); in the experiment on Enterococcus faecalis [12], 8 µg/mL (≈ 25.5 µM); against Escherichia coli [13] it was 8 µg/mL (≈ 25.5 µM).

For the molecule `CC(C)COc1nc(NC(=O)Nc2ccc(Cl)c(Cl)c2)sc1C#N`, the MIC with Escherichia coli [2] is over 128 µg/mL; against Staphylococcus aureus [3], 0.5 µg/mL (≈ 1.3 µM); in the experiment on Enterococcus faecalis [5], 0.25 µg/mL (≈ 0.649 µM); against Staphylococcus aureus [6], 0.25 µg/mL (≈ 0.649 µM); in the experiment with Streptococcus pneumoniae [7] it was 128 µg/mL; in experiment [8], 0.25 µg/mL (≈ 0.649 µM). In addition, the MIC is under 0.12 µg/mL in the experiment on Streptococcus pneumoniae [9], 0.5 µg/mL (≈ 1.3 µM) against Staphylococcus aureus [10], 0.25 µg/mL (≈ 0.649 µM) with Enterococcus faecalis [12] and over 128 µg/mL in the experiment on Escherichia coli [13]. In addition, the IC50 in experiment [4] was over 25 µg/mL; in [11], 5.8 µg/mL (≈ 15.1 µM).
